Assay results as given in patent US12630565B2, “DNA-dependent protein kinase inhibitor” (DIZAL (JIANGSU) PHARMACEUTICAL CO., LTD., priority 2019, dated 2026).

What was measured:
[1] = target: Full length human DNAPK protein (Homo sapiens, UniProt P78527); assay: DNA-PK enzymatic assay (TR-FRET); assay type: biochemical; conditions: 10 μM ATP, 1.6 μM peptide substrate
Rat hepatocyte = assay: Metabolic stability assay (rat hepatocyte Clint); assay type: in vitro ADME; conditions: 1 μM compound, cryopreserved hepatocytes 1 million cells per mL
Protocol: Viability of cryopreserved hepatocytes was determined using trypan blue and the cell conc. was adjusted to […] with buffer. 1 μM compound (in Acetonitrile; 0.01% DMSO) was incubated with 250 μL of hepatocytecells (1 million cells per mL) in a 96 deep well plate. Reaction was stopped at different time points (0, 0.5, 5, 15, 30, 45, 60, 80, 100 and 120 min) by addition of 3 volumes of chilled acetonitrile to 20 μL of reaction mixture and centrifuged at 4° C. for 15 min. 40 μL of supernatant was diluted to 200 μL with pure water and analyzed using LC-MS/MS.
In vitro hepatocyte clearance was estimated based on determination of elimination half-life (T1/2) of compounds disappearance from their initial concentrations. Peak area ratios of each compound (test or control) to IS was calculated. Drug elimination rate constant k (min−1), T1/2 (min), and in vitro intrinsic clearance CLint (μL/min/E6) was calculated according to the following equations: […]
Where Chep (cells×μL^−1) is the cell concentration in the incubation system.

[2] = Metabolic stability assay (human microsomal Clint); assay type: in vitro ADME; conditions: human, pooled human liver microsomes, pH 7.4, 1 μM compound, 1 mg/mL microsomes, 1 mM NADPH, 37° C.
Protocol: 1 μM compound was incubated with 1 mg/mL of microsomes (Pooled HLM with 20 mg/ml protein cone) at 37° C. in 250 μL of buffer (100 mM phosphate buffer, pH-7.4) containing 1 mM NADPH solution. 20 μL of incubation mix was quenched with 5 volumes chilled acetonitrile at different time points 0, 0.5, 5, 10, 15, 20 and 30 min in a fresh 96 well plate. The quench plate was centrifuged at 4000 rpm for 15 min. 40 μL of supernatant was diluted to 200 μL with pure water and analyzed using LC-MS/MS.
In vitro intrinsic clearance of the drugs in the microsome CLint (μl/min/mg) was calculated in the similar manner as the CLint in the hepatocyte.

MDR1, BCRP = assay: MDCKII-MDR1-BCRP efflux assay; assay type: in vitro ADME; conditions: dog, pH 7.4, 5 μM compound, HBSS pH 7.4, read-out: MDCK-Mdr1-BCRP efflux ratio
Protocol: The apical-to-basolateral (A-B) and basolateral-to-apical (B-A) transport of compound in HBSS (25 mM HEPES, pH 7.4) was measured across MDCKII-MDR1-BCRP cell monolayers. Incubations were performed at approximately 37° C. for 120 min, with functionality of the test system being confirmed using 5 μM digoxin as a positive control substrate. Transport of 5 μM compound and control compound were determined by quantifying substrate concentration in the incubation medium of donor compartment at the beginning of the incubation period, and both donor and receiver compartments at the end of the incubation period. The data was used to calculate the apparent permeability (Papp). All incubations were performed in triplicate and integrity of the cell monolayers was confirmed using the marker Lucifer yellow.
The permeability coefficient Pexact (cm/s) was calculated using the equation: […]
The Pexact ratio was calculated using the equation: […]
The efflux ratio was calculated using the equation: […]
Where dCr/dt is the cumulative concentration of compound in the receiver chamber as a function of time (μM/s); Vr is the solution volume in the receiver chamber (0.1 mL on the apical side, 0.3 mL on the basolateral side); A is the surface area for the transport, i.e. 0.11 cm2 for the area of the monolayer; CO is the initial concentration in the donor chamber (μM).

IC50 [1] | Rat hepatocyte CLint (μl/min/10^−6 cells) (Rat hepatocyte) | microsomal CLint at 1 μM [2] | efflux ratio at 120 min, 5 μM (MDR1, BCRP) | SMILES
1.5 nM | 11.3 μl/min/10^−6 cells | 41.5 µL/min/mg | 3 | Cc1cc2ncnn2cc1Nc1ncc2c(C)nn(C3CCCOCC3)c2n1 (single isomer, unassigned) [Example 33, 3-methyl-N-(7-methyl-[1,2,4]triazolo[1,5-a]pyridin-6-yl)-1-(oxepan-4-yl)-1H-pyrazolo[3,4-d]pyrimidin-6-amine]
2.8 nM | 21.7 μl/min/10^−6 cells | 55.4 µL/min/mg | 1.7 | Cc1cc2ncnn2cc1Nc1ncc2c(C)nn(C3CCOC(C)C3)c2n1 (single isomer, unassigned) [Example 35, 3-methyl-N-(7-methyl-[1,2,4]triazolo[1,5-a]pyridin-6-yl)-1-(2-methyltetrahydro-2H-pyran-4-yl)-1H-pyrazolo[3,4-d]pyrimidin-6-amine]
1.8 nM | <1 μl/min/10^−6 cells | 11.1 µL/min/mg | 3.6 | Cc1cc2ncnn2cc1Nc1ncc2c(C)nn(C3CCOC3)c2n1 (single isomer, unassigned) [Example 48, 3-methyl-N-(7-methyl-[1,2,4]triazolo[1,5-a]pyridin-6-yl)-1-(tetrahydrofuran-3-yl)-1H-pyrazolo[3,4-d]pyrimidin-6-amine]
2.4 nM | 33.4 μl/min/10^−6 cells | > 300 µL/min/mg | 1.4 | Cc1cc2ncnn2cc1Nc1ncc2c(C)nn(C3CC(C)OC(C)C3)c2n1 (single isomer, unassigned) [Example 86, 1-(2,6-dimethyltetrahydro-2H-pyran-4-yl)-3-methyl-N-(7-methyl-[1,2,4]triazolo[1,5-a]pyridin-6-yl)-1H-pyrazolo[3,4-d]pyrimidin-6-amine]
1.9 nM | 17.2 μl/min/10^−6 cells | 89 µL/min/mg | 2 | COC1CCC(n2nc(C)c3cnc(Nc4cn5ncnc5cc4C)nc32)C1 (single isomer, unassigned) [Example 108, 1-(3-methoxycyclopentyl)-3-methyl-N-(7-methyl-[1,2,4]triazolo[1,5-a]pyridin-6-yl)-1H-pyrazolo[3,4-d]pyrimidin-6-amine]
1.6 nM | 9.6 μl/min/10^−6 cells | 71.1 µL/min/mg | 2 | Cc1cc2ncnn2cc1Nc1ncc2c(C)nn(C3CCOC(C)(C)C3)c2n1 (single isomer, unassigned) [Example 116, 1-(2,2-dimethyltetrahydro-2H-pyran-4-yl)-3-methyl-N-(7-methyl-[1,2,4]triazolo[1,5-a]pyridin-6-yl)-1H-pyrazolo[3,4-d]pyrimidin-6-amine]

Second part, the molecule before the results:

SMILES | IC50 [1] | Rat hepatocyte CLint (μl/min/10^−6 cells) (Rat hepatocyte) | microsomal CLint at 1 μM [2] | efflux ratio at 120 min, 5 μM (MDR1, BCRP)
Cc1cc2ncnn2cc1Nc1ncc2c(C)nn(CC3CCCO3)c2n1 (single isomer, unassigned) [Example 50, 3-methyl-N-(7-methyl-[1,2,4]triazolo[1,5-a]pyridin-6-yl)-1-((tetrahydrofuran-2-yl)methyl)-1H-pyrazolo[3,4-d]pyrimidin-6-amine] | 7 nM | 2.1 μl/min/10^−6 cells | 12.2 µL/min/mg | 2.7
Cc1cc2ncnn2cc1Nc1ncc2c(C)nn(CC3CCOC3)c2n1 (single isomer, unassigned) [Example 52, 3-methyl-N-(7-methyl-[1,2,4]triazolo[1,5-a]pyridin-6-yl)-1-((tetrahydrofuran-3-yl)methyl)-1H-pyrazolo[3,4-d]pyrimidin-6-amine] | 10.8 nM | 4.9 μl/min/10^−6 cells | 14.1 µL/min/mg | 3.2
Cc1cc2ncnn2cc1Nc1ncc2c(C)nn(C3CCOCC3C)c2n1 (single isomer, unassigned) [Example 112, 3-methyl-N-(7-methyl-[1,2,4]triazolo[1,5-a]pyridin-6-yl)-1-(3-methyltetrahydro-2H-pyran-4-yl)-1H-pyrazolo[3,4-d]pyrimidin-6-amine] | 3.7 nM | 7.8 μl/min/10^−6 cells | 47 µL/min/mg | 3.5
Cc1cc2ncnn2cc1Nc1ncc2c(n1)c(C1CCOCC1)cn2C [Example 3, 7-methyl-N-(5-methyl-7-(tetrahydro-2H-pyran-4-yl)-5H-pyrrolo[3,2-d]pyrimidin-2-yl)-[1,2,4]triazolo[1,5-a]pyridin-6-amine] | 10.2 nM | 9.8 μl/min/10^−6 cells | 39.7 µL/min/mg | 3.1
Cc1cc2ncnn2cc1Nc1ncc2c(n1)c(C(C)C)nn2C [Example 4, 3-isopropyl-1-methyl-N-(7-methyl-[1,2,4]triazolo[1,5-a]pyridin-6-yl)-1H-pyrazolo[4,3-d]pyrimidin-5-amine] | 1.6 nM | 10.7 μl/min/10^−6 cells | 47.3 µL/min/mg | 0.9
Cc1cc2ncnn2cc1Nc1ncc2c(n1)c(C1CCCCC1)nn2C [Example 5, 3-cyclohexyl-1-methyl-N-(7-methyl-[1,2,4]triazolo[1,5-a]pyridin-6-yl)-1H-pyrazolo[4,3-d]pyrimidin-5-amine] | 0.4 nM | 22.8 μl/min/10^−6 cells | 135 µL/min/mg | 0.8
Cc1cc2nccn2cc1Nc1ncc2c(n1)c(C1=CCOCC1)nn2C [Example 6, 3-(3,6-dihydro-2H-pyran-4-yl)-1-methyl-N-(7-methylimidazo[1,2-a]pyridin-6-yl)-1H-pyrazolo[4,3-d]pyrimidin-5-amine] | 1.6 nM | 6.8 μl/min/10^−6 cells | 35.5 µL/min/mg | 4.9
CO[C@H]1CC[C@@H](c2nn(C)c3cnc(Nc4cn5ncnc5cc4C)nc32)CC1 [Example 8, 3-((1s,4s)-4-methoxycyclohexyl)-1-methyl-N-(7-methyl-[1,2,4]triazolo[1,5-a]pyridin-6-yl)-1H-pyrazolo[4,3-d]pyrimidin-5-amine] | 0.7 nM | 20.7 μl/min/10^−6 cells | 234 µL/min/mg | 1.7
Cc1cc2ncnn2cc1Nc1ncc2c(n1)c(C1CCC(F)(F)CC1)nn2C [Example 9, 3-(4,4-difluorocyclohexyl)-1-methyl-N-(7-methyl-[1,2,4]triazolo[1,5-a]pyridin-6-yl)-1H-pyrazolo[4,3-d]pyrimidin-5-amine] | 0.7 nM | 11.3 μl/min/10^−6 cells | 135 µL/min/mg | 1.3
[2H]C([2H])([2H])n1nc(C2CCOCC2)c2nc(Nc3cn4ncnc4cc3C)ncc21 [Example 10, 1-(methyl-d3)-N-(7-methyl-[1,2,4]triazolo[1,5-a]pyridin-6-yl)-3-(tetrahydro-2H-pyran-4-yl)-1H-pyrazolo[4,3-d]pyrimidin-5-amine] | 1.7 nM | 6.8 μl/min/10^−6 cells | 17.2 µL/min/mg | 7.2
Cc1cc2ncnn2cc1Nc1ncc2c(n1)c([C@H]1CC[C@@H](OC(F)F)CC1)nn2C [Example 11, 3-((1s,4s)-4-(difluoromethoxy)cyclohexyl)-1-methyl-N-(7-methyl-[1,2,4]triazolo[1,5-a]pyridin-6-yl)-1H-pyrazolo[4,3-d]pyrimidin-5-amine] | 0.7 nM | 190.4 μl/min/10^−6 cells | > 300 µL/min/mg | 1.8
